Data from publication PMC12117711, “The contribution of cyclic imide stereoisomers on cereblon-dependent activity†” (Chemical Science, 2025).
Non-standard residues stand in square brackets, D forms with d. No end group written: not given here. *: point of attachment. epicN = C-terminal cyclic asparagine (aspartimide), (R)-epimer, epimer of cN, O=C1C[C@@H](N*)C(=O)N1; cQ = C-terminal cyclic glutamine (glutarimide), (S)-epimer, O=C1CC[C@H](N*)C(=O)N1; Fmoc = O=C(OCC1c2ccccc2-c2ccccc21)*

What was measured:
[1] = in vitro, 0.1 M phosphate buffer (pH 7.4), 37 °C; cited from earlier work
CRBN = system: CRBN; parameters: method as in PMID 29358579, PMID 32929090, PMID 25043012, PMID 25108355; conditions: cited from earlier work
[2] = molecular target: T1, BRD4(BD1)-GFP in HEK293T cells (Homo sapiens, UniProt O60885+Q96SW2); assay: Degradation assay by flow cytometry, BRD4(BD1)-GFP; type: cell-based; conditions: 76 pM–20 μM, 4 h
T1 construct: HEK293T cells stably expressing BRD4(BD1) fused to GFP
Description: (v21.1.1) and Adobe Illustrator (v24.1).
MM.1S, MOLM13, Jurkat, and BxPC3 […]
μg/mL), and 10% (v/v) FBS.
Western Blotting Procedures […]
lysates and the concentration was adjusted using lysis buffer. 5× SDS-PAGE loading buffer […]
Protein samples (8–15 μL per lane) were […]
precast gels for medium molecular weight proteins. Gels were transferred to membranes using […]
for high molecular weight proteins. Membranes were stained with Ponceau S solution to visualize transfer and protein loading.
Degradation assay by flow cytometry […]
resuspension in DMEM +/– without phenol red. For IKZF1 degradation assay, propidium […]
equipped with a high throughput sampler. […]
using the BD FACSDiva software v9.1. For each experimental condition, the arithmetic mean […]
comparing compound treatment to DMSO control.
Structural proteomics mass spectrometry sample preparation […]
sample throughout the assay duration. The same analysis was also applied to the (S)- […]
dependent activity, we adjusted the dose-response curves accordingly. Because dose- […]
within the error margins of the original curve. […]
squares F-test. This analysis determined whether there was a statistically significant […]
derived (S)-enantiomer. If there is a statistically significant difference, the null […]
Cells were treated with 1 μM MLN4924
The cells were collected and lysed in […]
centrifugation (21,000 × g, 4 °C, 10 min). […]

[3] = molecular target: T2, His6-CRBN/DDB1 and GST-BRD4(BD2) (Homo sapiens, UniProt O60885+Q96SW2); assay: AlphaScreen ternary complex formation, His6-CRBN/DDB1 and GST-BRD4(BD2); type: binding
T2 construct: His6-CRBN/DDB1 complex and GST-BRD4 BD2 domain; purchased Epicypher (GST-BRD4(BD2)); Bristol Myers Squibb gift (His6-CRBN/DDB1) 15-0013
Description: AlphaScreen was performed according to the previously reported method.7 Briefly, for AlphaScreen of His6-CRBN/DDB1, GST-IKZF1 and (S)-, (R)- or rac-lenalidomide-d3, a solution of 100 nM His6-CRBN/DDB1 and 200 nM GST-IKZF1 in 1x AlphaScreen buffer (5 µL) and a solution of the indicated compound in 1x AlphaScreen buffer (5 µL) were added to a each well of a 384-well Optiplate and incubated at 24 °C for 1 h. To each well, a solution of 5 µL of 60 µg/mL AlphaScreen Glutathione Donor beads, 60 µg/mL AlphaLISA Nickel Chelate Donor beads in 1× AlphaScreen buffer was added to each well and incubated at 24 °C for 1 h in the dark and the plate was analyzed. For AlphaScreen of His6-CRBN/DDB1, GST-BRD4(BD2) and bivalent degraders, a solution of 750 nM His-CRBN/DDB1 and 375 nM GST-BRD4(BD2) in 1x AlphaScreen buffer (5 µL) and a solution of the indicated compound in 1x AlphaScreen buffer (5 µL) were added to a each well of a 384-well Optiplate and incubated at 24 °C for 1 h. To each well, a solution of 5 µL of 60 µg/mL AlphaScreen Glutathione Donor beads, 60 µg/mL AlphaLISA Nickel Chelate Donor beads in 1× AlphaScreen buffer was added to each well and incubated at 24 °C for 1 h in the dark and the plate was analyzed. […]
heated at 95 °C for 5 min. 10 µL of the immunoprecipitated sample was load on a 12% Tris-glycine gel and probe-labeling was visualized by fluorescence signal. Separately, 10 µL of the immunoprecipitated sample and the “input” sample were load on a 12% Tris-glycine gel and analyzed by Western blotting. […]
Parental cell lines were stably infected with a unique 24-nucleotide DNA barcode via lentiviral transduction and blasticidin selection. […] Passing barcoded lines were then pooled (20-25 cell lines per pool) based on doubling time and frozen in assay-ready vials.
Test compounds were added to 384-well plates and run at 8 pt. dose with 3-fold dilutions, the highest concentration of 25 µM in triplicate. These assay ready plates were then seeded with […]

MOLM13 cells = assay: Global quantitative proteomics of protein levels; type: cell-based; conditions: 4 h; for FC [fold change abundances (S/DMSO)] / logFC (S vs DMSO): MOLM13, 100 nM
Description: Global Quantitative Proteomics Sample Preparation and Mass Spectrometry Acquisition Global Quantitative Proteomics was performed according to the previously reported method.7 Briefly, 1.0×10^6 MOLM13 cells were seeded in 12-well plates and small molecules of interest were added, and cells were incubated at 37 °C, 5% CO2 for 4 hours. Cells were collected […]
15 sec in total, 11% amplitude) in lysis buffer (5% SDS in 50 mM triethylammonium bicarbonate (TEAB), pH 7.55), and cleared by centrifugation (21,000 × g, 4 °C, 10 min). After protein quantification by BCA protein assay, the lysates were diluted to 1.5 mg/mL with the lysis buffer. The diluted lysates (60 μL) were reduced by addition of dithiothreitol (20 mM) at 24 °C for 30 min then alkylated by addition of iodoacetamide (40 mM) and incubation in the dark at 24 °C for 30 min.

His6-CRBN/DDB1 = His6-CRBN/DDB1 (Homo sapiens, UniProt Q96SW2); assay: TR-FRET ligand displacement assay (Thal-FITC tracer) with His6-CRBN/DDB1
His6-CRBN/DDB1 complex [4] = molecular target: His6-CRBN/DDB1 complex (UniProt Q96SW2); assay: AlphaScreen or HTRF; competitive TR-FRET ligand displacement assay against recombinant His6-CRBN/DDB1; KD from dose-titration of the ligand
His6-CRBN/DDB1 complex [5] = molecular target: T3, His6-CRBN/DDB1 complex (UniProt Q96SW2 1-442; Q16531 1-1140); assay: AlphaScreen or HTRF; competitive TR-FRET ligand displacement; peptide titrated against recombinant His6-CRBN/DDB1 (2.5 nM) with the tracer Thalidomide-FITC (50 nM); KD from IC50 by the correction factor 1.426 (tracer KD 2-site 117.3 nM); conditions: both partners purified
T3 construct: cereblon (CRBN), E3 ligase substrate adapter; DDB1, in complex with His6-CRBN; Column 'Protein' of S0003 says only 'CRBN'; the text and legends name His6-CRBN/DDB1 for this TR-FRET assay; also called cereblon; source: recombinant

His6-CRBN/DDB1 complex [6] = molecular target: T4, His6-CRBN/DDB1 complex (UniProt Q96SW2 1-442; Q16531 1-1140); assay: AlphaScreen or HTRF; competitive TR-FRET ligand displacement assay against recombinant His6-CRBN/DDB1; KD from dose-titration of the ligand; conditions: both partners purified
T4 construct: cereblon (CRBN), E3 ligase substrate adapter; DDB1, in complex with CRBN; Used as a preformed complex in TR-FRET and AlphaScreen; also called cereblon; source: recombinant

For `O=C1CC[C@@H](N2C(=O)c3ccccc3C2=O)C(=O)N1` [(R)-thalidomide], the “t50%ee (racemization half-life)” value [1] is listed as 2.9 h.

In the case of `O=C1CC[C@H](N2C(=O)c3ccccc3C2=O)C(=O)N1` [(S)-thalidomide], the “fold greater binding affinity to CRBN than (R)-thalidomide” value (CRBN) is given as “approximately 10 fold”.

In the case of `[2H]C1([2H])C[C@]([2H])(N2Cc3cc(NC(=O)CCCCCCCCNC(=O)C[C@@H]4N=C(c5ccc(Cl)cc5)c5c(sc(C)c5C)-n5c(C)nnc54)ccc3C2=O)C(=O)NC1=O` [JQ1-(S)-Len-d3], the “degradation of BRD4(BD1)-GFP” value [2] is reported as “depleted BRD4 in a dose-dependent manner”, the “ternary complex formation between His6-CRBN/DDB1 and GST-BRD4(BD2)” value [3] is reported as “promoted a significant ternary complex formation” and the “BRD4 protein levels by global quantitative proteomics” value (MOLM13 cells; MOLM13 cells, 100 nM) is reported as “most significantly downregulated protein”. The “FC [fold change abundances (S/DMSO)]” value (MOLM13 cells; protein BRD4) was -1.354, the “logFC (S vs DMSO)” value (MOLM13 cells; protein BRD4) was -0.6026 and the “FC [fold change abundances (S/DMSO)]” value (MOLM13 cells; protein BRI3BP) was 2.54. The “logFC (S vs DMSO)” value (MOLM13 cells; protein BRI3BP) was 1.398, the “FC [fold change abundances (S/DMSO)]” value (MOLM13 cells; protein C8orf33) was 1.053 and the “logFC (S vs DMSO)” value (MOLM13 cells; protein C8orf33) was 0.3248. For the same molecule, the “FC [fold change abundances (S/DMSO)]” value (MOLM13 cells; protein KPNA3) was 1.127, the “logFC (S vs DMSO)” value (MOLM13 cells; protein KPNA3) was 0.397 and the “FC [fold change abundances (S/DMSO)]” value (MOLM13 cells; protein PSME2) was 1.009. For the same molecule, the “logFC (S vs DMSO)” value (MOLM13 cells; protein PSME2) was 0.2805, the Kd (His6-CRBN/DDB1; KD, competitive TR-FRET, His6-CRBN/DDB1) was < 1 nM and the Kd (His6-CRBN/DDB1; predicted KD of the (S)-stereoisomer, ligand displacement assay adjusted for (S)-stereoisomer, (S)-stereoisomer in the (S)-sample, corrected for racemization) was 2.9 ± 0.2 nM.

For Fmoc-GGGF[epicN] (pentapeptide; source: synthetic peptide) [Fmoc-GGGFepicN], the Kd (His6-CRBN/DDB1 complex [4]) was 2870 nM and the IC50 (His6-CRBN/DDB1 complex [5]) was 4090 nM.

B1: Fmoc-GGGFcQ (peptide)
peptide: Fmoc-GGGF[cQ]
notes: pentapeptide bearing the (S)-epimer of cyclic glutamine at the C-terminus; also called FcQ pentapeptide; source: synthetic peptide
For B1, the Kd (His6-CRBN/DDB1 complex [6]) was 89 nM.
